Data set [1] concerns the target T1, Metabotropic glutamate receptor 2 (Homo sapiens, UniProt Q14416). The data set can be described thus: Positive allosteric modulation of human mGluR2 expressed in CHO cells assessed as incorporation of [35S]GTPgammaS after 30 mins by scintillation counting analysis. In kind it is functional, cell-based.
Target sequence in this assay (Q14416 whole entry): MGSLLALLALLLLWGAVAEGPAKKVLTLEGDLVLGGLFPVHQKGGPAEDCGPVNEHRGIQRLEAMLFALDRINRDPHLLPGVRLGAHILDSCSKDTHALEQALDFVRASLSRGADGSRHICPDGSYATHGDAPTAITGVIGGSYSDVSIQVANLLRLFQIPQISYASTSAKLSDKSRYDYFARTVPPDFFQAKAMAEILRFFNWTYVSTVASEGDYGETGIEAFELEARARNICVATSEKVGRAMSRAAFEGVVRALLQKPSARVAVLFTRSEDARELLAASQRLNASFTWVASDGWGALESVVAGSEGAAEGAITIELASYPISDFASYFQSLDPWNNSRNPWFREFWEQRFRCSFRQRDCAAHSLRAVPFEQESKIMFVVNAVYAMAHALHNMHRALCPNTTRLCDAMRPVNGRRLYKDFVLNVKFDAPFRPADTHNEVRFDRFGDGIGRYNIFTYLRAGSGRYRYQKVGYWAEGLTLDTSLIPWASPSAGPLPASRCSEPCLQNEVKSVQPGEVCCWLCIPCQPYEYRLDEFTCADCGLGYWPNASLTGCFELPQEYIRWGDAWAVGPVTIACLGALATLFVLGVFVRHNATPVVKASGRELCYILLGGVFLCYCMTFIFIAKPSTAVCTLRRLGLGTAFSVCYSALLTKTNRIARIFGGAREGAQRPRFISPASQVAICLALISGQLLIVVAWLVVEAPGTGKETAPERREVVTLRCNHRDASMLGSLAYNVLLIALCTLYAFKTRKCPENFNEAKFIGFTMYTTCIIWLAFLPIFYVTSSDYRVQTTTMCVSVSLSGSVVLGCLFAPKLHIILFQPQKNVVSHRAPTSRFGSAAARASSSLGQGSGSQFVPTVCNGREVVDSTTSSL
The target of data set [2] is T1, Metabotropic glutamate receptor 2. Description: Positive allosteric modulation of human mGluR2 expressed in CHO cells assessed as incorporation of [35S]GTPgammaS at 0.3 nM to 50 uM after 30 mins by scintillation counting analysis relative to control. In kind it is functional, cell-based.
Target sequence in this assay (Q14416 19-872 limits assumed): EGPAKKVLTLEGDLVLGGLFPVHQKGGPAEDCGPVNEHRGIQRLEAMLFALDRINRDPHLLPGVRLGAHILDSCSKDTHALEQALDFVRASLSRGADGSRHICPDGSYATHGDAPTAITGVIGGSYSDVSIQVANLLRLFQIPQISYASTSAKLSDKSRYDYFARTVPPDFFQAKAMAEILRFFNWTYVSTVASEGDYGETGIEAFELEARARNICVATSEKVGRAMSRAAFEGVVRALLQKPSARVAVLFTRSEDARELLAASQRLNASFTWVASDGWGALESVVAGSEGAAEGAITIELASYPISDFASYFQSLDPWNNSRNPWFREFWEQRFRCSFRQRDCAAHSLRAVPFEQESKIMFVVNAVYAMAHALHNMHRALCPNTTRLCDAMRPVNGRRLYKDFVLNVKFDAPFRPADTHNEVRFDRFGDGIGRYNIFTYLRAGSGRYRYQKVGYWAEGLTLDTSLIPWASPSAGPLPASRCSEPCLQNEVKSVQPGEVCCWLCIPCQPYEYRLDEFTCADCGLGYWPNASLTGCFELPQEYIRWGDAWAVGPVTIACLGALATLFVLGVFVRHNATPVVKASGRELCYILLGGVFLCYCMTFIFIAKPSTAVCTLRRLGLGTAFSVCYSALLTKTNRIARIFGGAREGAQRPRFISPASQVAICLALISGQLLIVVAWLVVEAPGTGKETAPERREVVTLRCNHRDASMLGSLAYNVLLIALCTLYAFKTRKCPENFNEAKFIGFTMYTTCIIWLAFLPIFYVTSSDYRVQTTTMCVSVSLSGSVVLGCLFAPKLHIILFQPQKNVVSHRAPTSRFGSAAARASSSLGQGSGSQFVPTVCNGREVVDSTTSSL
A short description of data set [3]: Drug metabolism in human liver microsomes at 5 uM after 15 mins. In kind it is ADME. The conditions noted are these: read-out: Drug metabolism.
Data set [4] deals with T1, Metabotropic glutamate receptor 2. Description: Potentiation of human mGluR2 expressed in CHO cells assessed as fold shift in glutamate concentration response curve at 3 uM relative to control. Format: cell-based.
Target sequence in this assay (Q14416 19-872 limits assumed): as above
For data set [5] the target is unchanged. Description: Positive allosteric modulation of mGluR2 (unknown origin) by FLIPR assay.
Target sequence in this assay (Q14416 whole entry): as the sequence (Q14416 whole entry) above

Molecules are shown by their SMILES.

Here are results for 15 compounds from ChEMBL document CHEMBL3217606, “New positive allosteric modulators of the metabotropic glutamate receptor 2 (mGluR2). Identification and synthesis of N-propyl-5-substituted isoquinolones” (Medchemcomm, 2011).

The EC50 is the concentration needed to bring the measured effect to its halfway point. A word on the Emax: it is the maximal effect, on the per cent scale that the assay sets. `CCCn1ccc2c(NCc3cccc(OC(F)(F)F)c3)cccc2c1=O`: the half-maximal effective concentration (EC50) in data set [1] was 200 nM. In addition, the Emax in data set [2] was 162%. For the same compound, the metabolised at 0.25 h, 5 µM in data set [3] was found to be 34%.
In the case of `CCCn1ccc2c(NCc3cccc(OC)c3)cccc2c1=O`, the EC50 in data set [1] was 316 nM. In addition, the Emax in data set [2] amounted to 129%.
With `CCCn1ccc2c(NCCCc3ccccc3)cccc2c1=O`, the EC50 in data set [1] is 158 nM. The Emax in data set [2] worked out at 112%. The metabolised at 0.25 h, 5 µM in data set [3] was found to be 57%.
Take `CCCn1ccc2c(NCc3ccccc3Cl)cccc2c1=O`: the half-maximal effective concentration (EC50) in data set [1] is 200 nM. Also, the maximum response (Emax) in data set [2] amounted to 163%. The metabolised at 0.25 h, 5 µM in data set [3] stood at 26%. Further, the fold change (FC) in data set [4] is 6.6.
With `CCCn1ccc2c(NCCc3ccccc3OC)cccc2c1=O`, the EC50 in data set [1] is 126 nM. The maximal response (Emax) in data set [2] was determined as 137%. Further, the metabolised at 0.25 h, 5 µM in data set [3] is 91%.
In the same order, the values of `CCCn1ccc2c(NCCc3ccc(OC)cc3)cccc2c1=O` are 251 nM, 92% and 97%.
For the compound `CCCn1ccc2c(NCCc3ccccc3)cccc2c1=O`, the values for the EC50 in data set [1] and in data set [5] were 501 nM and 158 nM, respectively. Further, the Emax in data set [2] was 123%. For the same compound, the metabolised at 0.25 h, 5 µM in data set [3] was found to be 52%.
Take `CCCn1ccc2c(N(C)CCc3ccc(OC)cc3)cccc2c1=O`: the EC50 in data set [1] was 398 nM. The Emax in data set [2] was found to be 93%.
As for `CCCn1ccc2c(NCc3ccc(OC)cc3)cccc2c1=O`, the EC50 in data set [1] was 501 nM. For the same compound, the Emax in data set [2] was found to be 81%.
Consider `CCCn1ccc2c(NCCc3cccc(OC)c3)cccc2c1=O`, for which the EC50 in data set [1] was 251 nM. In addition, the Emax in data set [2] came to 110%.
The matching figures for `CCCn1ccc2c(NCc3cccc(Oc4ccccc4)c3)cccc2c1=O`: 1260 nM and 65%.
The matching figures for `CCCn1ccc2c(NCCc3ccc(C)cc3)cccc2c1=O`: 200 nM and 134%.
Take `CCCn1ccc2c(NCc3ccccc3)cccc2c1=O`: in data set [1], the EC50 was 2000 nM. For the same compound, in data set [2], the Emax amounted to 80%. Further, the metabolised at 0.25 h, 5 µM in data set [3] came to 38%.
Regarding `CCCn1ccc2c(NCCc3ccccc3)ccc(Cl)c2c1=O`, the EC50 in data set [1] was 251 nM. The Emax in data set [2] amounted to 68%.
In the same order, the values of `CCCn1ccc2c(OCCc3ccc(OC)cc3)cccc2c1=O` are 251 nM and 123%.
